We go through 1 molecule from patent publication US9650348B2, “Triazines with suitable spacers for treatment and/or prevention of HIV infections” (Universiteit Antwerpen, priority 2012, dated 2017).

Data set [1] deals with HIV-1 BaL. Briefly: TZM-bl antiviral assay, wild type HIV-1 Ba-L. The class given is cell-based. Particulars: Human immunodeficiency virus 1, BAL; TZM-bl cells, Ba-L wild type; read-out: Antiviral activity-wild type viruses EC50 TZM-bI Ba-L. As for the experimental part: (§1) The JC53-BL cell line, also known as the TZM-bl cell line (NIH AIDS Research and Reference Reagent Program, Germantown, USA), was used for the evaluation of anti-HIV activity. TZM-bl cells were cultured in Dulbecco's […] (DMEM) (Lonza) containing 10% heat-inactivated FBS and 50 μg gentamycin/mL at 37° C. in a humidified 5% CO2, 95% air environment. Twice a week the cells were treated with 0.25% trypsin-1 mM EDTA (Lonza) for 10 minutes. The resulting cell suspension was washed with an equivalent amount of TZM-bl medium and subsequently seeded in a T75 culture flask (Greiner Bio-One, Germany) at 10^6 cells in 20 mL medium.
(§2) The antiviral activity of the newly designed compounds was measured by pre-incubating ten thousand TZM-bl cells (at 10^5 cells/mL in culture medium supplemented with 30 μg/mL DEAE dextran) in a 96-well plate for 30 minutes at 37° C., 5% CO2 in the presence or absence of serial dilutions of the respective compound. Subsequently, 200 TCID50 of HIV-1 BaL was added to each well and cultures were incubated for 48 hours before quantifying luciferase activity, using a TriStar LB941 luminometer (Berthold Technologies GmbH & Co. KG, Bad Wildbad, Germany). Each condition was evaluated in triplicate wells and in at least two independent experiments. The antiviral activity of the compound was expressed as the percentage of viral inhibition compared to the untreated controls and subsequently plotted against the compound concentration.
(§3) The target compounds are evaluated for their anti-HIV-1 activity and cytotoxicity. In a primary screen, the anti-HIV activity against the laboratory strain Ba-L and against a primary subtype C isolate was determined in the TZM-bl cell line. Cellular toxicity on TZM-bl cells was evaluated using WST-1. […] In addition, the activity against NNRTI-resistant viruses (V106A, Y181C, L100I+K103N, L100I+E138K+T369I and K101E+K103N+V108VI+V179M+Y181C+E138Q) was tested. Diarylpyrimidines (DAPY) TMC120, TMC125 and TMC278 were used as reference compounds.

Data set [2] relates to VI829. Briefly: TZM-bl antiviral assay, wild type VI829 (primary subtype C isolate). The class given is cell-based, HIV-1. Particulars: Human immunodeficiency virus 1; TZM-bl cells, VI829 wild type; read-out: Antiviral activity-wild type viruses EC50 TZM-bI VI829. As for the experimental part:
as §1, §2, §3

Data set [3] concerns VI829 Y181C. Briefly: Antiviral activity, NNRTI-resistant virus Y181C. The format is cell-based, HIV-1. As for the experimental part: as §3
Data set [4] has as its system Ba-L K101E + K103N + V108VI + V179M + Y181C + E138Q. Briefly: Antiviral activity, NNRTI-resistant virus K101E+K103N+V108VI+V179M+Y181C+E138Q. The class given is cell-based, HIV-1. The method, then:
(§4) The target compounds are evaluated for their anti-HIV-1 activity and cytotoxicity. In a primary screen, the anti-HIV activity against the laboratory strain Ba-L and against a primary subtype C isolate was determined in the TZM-bl cell line. Cellular toxicity on TZM-bl cells was evaluated using WST-1. Based on the primary screening results, the target compound was further evaluated for anti-HIV activity in different primary cells, including peripheral blood mononuclear cells, dendritic cells and CD4+ T lymphocytes. In addition, the activity against NNRTI-resistant viruses (V106A, Y181C, L100I+K103N, L100I+E138K+T369I and K101E+K103N+V108VI+V179M+Y181C+E138Q) was tested. Diarylpyrimidines (DAPY) TMC120, TMC125 and TMC278 were used as reference compounds.

The nature of data set [5]: Partition coefficient (Log D), octanol/PBS. Particulars: octanol/PBS pH 7.4. The class given is physicochemical. As for the experimental part:
10 mM stock solution (in DMSO) was prepared.
200 μM solution (in DMSO) was prepared from 10 mM stock solution.
A set of 5-10 dilutions (in MeOH) of each compound were prepared from 200 μM solution to give final test concentrations between 1 nm and 2 μM.
MS tuning was done for each compound to find the daughter peaks using 500 nm solution.
Calibration curve was made for each compound to evaluate the linearity of our method.
Octanol was first saturated with PBS and PBS was first saturated with octanol
20 μl of a 10 mM DMSO stock solution was added to 990 μl of PBS (pH 7.4) and then 990 μl of octanol was added. The experiment was done in duplicate. After two hours of shaking at 37° C. and keeping at room temperature for 30 minutes the two layers were separated. After separation, octanol layer was diluted further with MeOH and compound was quantified in both layers by UPLC (waters). The samples were analysed in triplicate.
Where: • ConcINITIAL=Concentration of compound in the initial aqueous solution (PBS) • ConcFINAL=Concentration of compound in final aqueous phase (PBS) • Vaq=Volume of aqueous (PBS) • Voct=Volume of octanol

The test system of data set [6] is HIV-1 Ba-L. As to the kind of experiment: Antiviral activity in peripheral blood mononuclear cells (PBMC), Ba-L. The class given is cell-based. Particulars: Human immunodeficiency virus 1, BAL, Ba-L wild type, read-out: Antiviral activity-wild type viruses EC50 PBMC Ba-L.
Data set [7] concerns VI829 L100I+E138K+T369I. As to the kind of experiment: Antiviral activity, NNRTI-resistant virus L100I+E138K+T369I. The format is cell-based, HIV-1. The method, then:
as §4

The subject of data set [8] is VI829 L100I+K103N. Briefly: Antiviral activity, NNRTI-resistant virus L100I+K103N. The class given is cell-based, HIV-1. The method, then:
as §3

In data set [9] the test system is TZM-bl cells. As to the kind of experiment: in vitro. The class given is cell-based. Particulars: human, 48 h.
Source text: (§5) The Water Soluble Tetrazolium-1 (WST-1) Cell Proliferation Assay is a colorimetric assay for the measurement of cell proliferation and viability. The assay is based on the cleavage of the tetrazolium salt WST-1 (4-[3-(4-iodophenyl)-2-(4-nitrophenyl)-2H-5-tetrazolio]-1,3-benzene disulfonate) to a formazan dye by a complex cellular mechanism. This bioreduction is largely dependent on the glycolytic production of NAD(P)H in viable cells. Therefore, the amount of formazan dye formed correlates directly to the number of viable cells in the culture, and can be quantified by measuring the absorbance at 450 nm in a multiwell plate reader. The greater the number of viable cells, the greater the amount of formazan dye produced following the addition of WST-1. Cytotoxicity of each compound was evaluated using this WST-1 viability assay, according to the manufacturer's instructions (Roche, Vilvoorde, Belgium).
(§6) Briefly, ten thousand TZM-bl cells were seeded in a 96-well plate and cultured for 2 days in the presence of a serial dilution of compound. After this 48 h exposure, Cell Proliferation Reagent, WST-1, was added and absorbance at 450 nm was quantified after 90 min using a microplate reader (BioRad, Tokio, Japan). Each compound was tested in three replicate wells and in at least two independent experiments.
as §3

A short description of data set [10]: in vitro. The class given is cell-based. Particulars: human, Cytotoxicity CC50 TZM-bI.
Source text: as §5, §6, §3

Data set [11] deals with Ba-L V106A. Briefly: Antiviral activity, NNRTI-resistant virus V106A. The format is cell-based, HIV-1. As for the experimental part:
as §3

In data set [12] the test system is HIV-1 Ba-L. As to the kind of experiment: Antiviral activity in dendritic cells / CD4+ T lymphocytes (DC/T4), Ba-L. The format is cell-based. Particulars: Human immunodeficiency virus 1, BAL; DC/T4, Ba-L wild type; read-out: Antiviral activity-wild type viruses EC50 DC/T4 Ba-L.

SMILES strings stand for the structures. A value given as a limit tells only on which side of the number the result lay.

Take `Cc1cc(C)c(Nc2ccnc(Nc3ccc(C#N)cc3)n2)c(C)c1` [TMC120, reference compound]: the EC50 in [1] is 2 nM; in data set [2], 2 nM; in [3] (Human immunodeficiency virus 1, read-out: Antiviral activity-NNRTI-resistant viruses EC50 VI829 Y181C), 10.8 nM; in data set [4] (Human immunodeficiency virus 1, BAL, read-out: Antiviral activity-NNRTI-resistant viruses EC50 Ba-L *) it was greater than 1000 nM; in data set [6], 5.1 nM; in data set [8] (Human immunodeficiency virus 1, read-out: Antiviral activity-NNRTI-resistant viruses EC50 VI829 L100I+K103N) it was 674 nM. Further, the EC50 in [11] (Human immunodeficiency virus 1, BAL, read-out: Antiviral activity-NNRTI-resistant viruses EC50 Ba-L V106A) worked out at 2.5 nM; in data set [12] it was 1.6 nM. For the same molecule, the “FC (Y181C)” value in data set [3] (VI829 Y181C) was 5. The “FC (*)” value in data set [4] (Ba-L, * = K101E + K103N + V108VI + V179M + Y181C + E138Q) is reported as greater than 500. For the same molecule, in [4] (K101E+K103N+V108VI+V179M+Y181C+E138Q), the “activity against NNRTI-resistant virus K101E+K103N+V108VI+V179M+Y181C+E138Q, in words” value is on record as “no activity”. Also, the logD at 2 h in data set [5] is greater than 5. The “activity against NNRTI-resistant virus L100I+E138K+T369I, in words” value in [7] (L100I+E138K+T369I) is “no activity”. The “FC (**)” value in data set [7] (VI829, ** = L1001 + E138K + T3691) was greater than 500. The “activity against Efavirenz resistant viruses (L100I+K103N), in words” value in data set [8] (L100I+K103N) is “high nanomolar activity”. In addition, the “FC (L100I+K103N)” value in data set [8] (VI829 L100I+K103N) was determined as 337. The CC50 in data set [9] is less than 5000 nM. Further, the midpoint of cytotoxicity in [10], the CC50 at 48 h, lay at 2880 nM. For the same molecule, the “FC (V106A)” value in [11] (Ba-L V106A) turned out to be 1.

As usually defined, the logD is the decadic logarithm of the distribution of all forms, ionised or not, between an organic phase and buffer at a given pH. Read a low logD as lower lipophilicity. Usually CC50 stands for the concentration at which the toxic effect on the cells reaches its halfway point.
